This is an account of results in BindingDB's records for doi:10.1111/cbdd.12445 (Konkuk University, 2015).

By IC50 is commonly meant the concentration that gives 50% inhibition. Read a high IC50 as a need for much substance.

The target in this experiment is Aurora kinase B (Homo sapiens, UniProt Q96GD4). Put plainly: Aurora B Kinase Assay.
Aurora kinase B, sequence (Q96GD4 whole entry): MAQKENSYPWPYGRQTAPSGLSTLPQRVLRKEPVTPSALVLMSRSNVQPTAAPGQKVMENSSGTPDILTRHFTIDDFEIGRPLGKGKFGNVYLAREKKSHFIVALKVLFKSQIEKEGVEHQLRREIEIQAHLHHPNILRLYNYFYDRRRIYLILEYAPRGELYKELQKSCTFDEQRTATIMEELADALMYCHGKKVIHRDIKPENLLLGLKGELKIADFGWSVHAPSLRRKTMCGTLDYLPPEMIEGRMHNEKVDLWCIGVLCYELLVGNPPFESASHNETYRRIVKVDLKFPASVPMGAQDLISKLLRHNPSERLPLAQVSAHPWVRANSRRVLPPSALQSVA
Compound `O=c1c(O)c(-c2ccc(O)c(O)c2)oc2cc(O)ccc12` [2-(3,4-dihydroxyphenyl)-3,7-dihydroxy-chromen-4-one] registered an IC50 of 2.63 µM.
Under `COc1ccc(-c2cc(=O)c3c(OC)c(OC)c(OC)cc3o2)cc1OC` [2-(3,4-dimethoxyphenyl)-5,6,7-trimethoxy-4H-chromen-4-one] stands 5.31 µM; under `O=c1c(O)c(-c2cc(O)c(O)c(O)c2)oc2cc(O)cc(O)c12`, 3.98 µM.
Take `O=c1c(O)c(-c2ccc(O)cc2O)oc2cc(O)cc(O)c12` [2-(2,4-dihydroxyphenyl)-3,5,7-trihydroxychromen-4-one]: the IC50 is 4.71 µM.
Under `O=c1c(O)c(-c2ccc(O)c(O)c2)oc2cc(O)c(O)c(O)c12` [2-(3,4-dihydroxyphenyl)-3,5,6,7-tetrahydroxy-4H-chromen-4-one] stands 2.62 µM; under `O=C(O)[C@H]1O[C@@H](Oc2cc3oc(-c4ccccc4)cc(=O)c3c(O)c2O)[C@H](O)[C@@H](O)[C@@H]1O` [(2S,3S,4S,5R,6S)-6-(5,6-dihydroxy-4-oxo-2-phenyl-4H-chromen-7-yloxy)-3,4,5-trihydroxy-tetrahydro-2H-pyran-2-carboxylic acid], 12.2 µM.
The same measure for `O=c1cc(-c2ccc(O)c(O)c2)oc2cc(O)cc(O)c12` [2-(3,4-dihydroxyphenyl)-5,7-dihydroxy-4H-chromen-4-one]: 3.88 µM; for `O=c1c(O)c(-c2ccc(O)c(O)c2)oc2cc(O)cc(O)c12` [2-(3,4-dihydroxyphenyl)-3,5,7-trihydroxy-chromone;hydrate]: 3.96 µM.
`O=c1cc(-c2ccc(O)cc2)oc2cc(O)c(O)c(O)c12` [5,6,7-trihydroxy-2-(4-hydroxyphenyl)-4H-chromen-4-one]: the half-inhibitory concentration (IC50) was found to be 3.85 µM.
The same measure for `O=c1cc(-c2ccc(O)cc2)oc2cc(O[C@@H]3O[C@H](CO)[C@@H](O)[C@H](O)[C@H]3O[C@@H]3OC[C@](O)(CO)[C@H]3O)cc(O)c12` [7-[(2S,3R,4S,5S,6R)-3-[(2S,3R,4R)-3,4-dihydroxy-4-(hydroxymethyl)oxolan-2-yl]oxy-4,5-dihydroxy-6-(hydroxymethyl)oxan-2-yl]oxy-5-hydroxy-2-(4-hydroxyphenyl)chromen-4-one]: 12.1 µM; for `O=c1c(O)c(-c2ccc(O)c(O)c2)oc2c(O[C@@H]3O[C@H](CO)[C@@H](O)[C@H](O)[C@H]3O)c(O)cc(O)c12` [2-(3,4-dihydroxyphenyl)-3,5,7-trihydroxy-8-[(2S,3R,4S,5S,6R)-3,4,5-trihydroxy-6-(hydroxymethyl)oxan-2-yl]oxychromen-4-one]: 11.1 µM; for `C[C@@H]1O[C@@H](Oc2c(-c3cc(O)c(O)c(O)c3)oc3cc(O)cc(O)c3c2=O)[C@H](O)[C@H](O)[C@H]1O` [5,7-dihydroxy-3-[(2S,3R,4R,5R,6S)-3,4,5-trihydroxy-6-methyloxan-2-yl]oxy-2-(3,4,5-trihydroxyphenyl)chromen-4-one]: 3.89 µM.
The same measure for `O=c1cc(-c2ccc(O)cc2)oc2cc(O)cc(O)c12` [Naringenin, 18]: 3.96 µM; for `COc1cc(-c2oc3cc(O)ccc3c(=O)c2O)ccc1O` [3,7-dihydroxy-2-(4-hydroxy-3-methoxyphenyl)chromen-4-one]: 2.85 µM; for `O=c1c(O)c(-c2ccc(O[C@@H]3O[C@H](CO)[C@@H](O)[C@H](O)[C@H]3O)c(O)c2)oc2cc(O)cc(O)c12`: 29.4 µM.
On to `O=c1c(O)c(-c2ccccc2)oc2ccccc12` [3-hydroxy-2-phenyl-4H-chromen-4-one], for which inhibition was half-maximal at 4.29 µM (IC50).
The same measure for `O=c1c(O)c(-c2ccc(O)c(O)c2)oc2c(O)c(O)cc(O)c12`: 4.1 µM; for `O=c1cc(-c2ccccc2)oc2cc(O)c(O)c(O)c12`: 4.06 µM.
The same measure for `COc1ccc(-c2oc3cc(O)cc(O)c3c(=O)c2O)cc1O` [3,5,7-trihydroxy-2-(3-hydroxy-4-methoxyphenyl)-4H-chromen-4-one]: 7.39 µM; for `O=c1c(O)c(-c2ccccc2O)oc2cc(O)cc(O)c12` [3,5,7-trihydroxy-2-(2-hydroxyphenyl)chromen-4-one]: 17.8 µM.
The same measure for `O=c1c(O[C@@H]2O[C@H](CO)[C@@H](O)[C@H](O)[C@H]2O)c(-c2ccc(O)c(O)c2)oc2cc(O)cc(O)c12` [2-(3,4-dihydroxyphenyl)-5,7-dihydroxy-3-[(2S,3R,4S,5S,6R)-3,4,5-trihydroxy-6-(hydroxymethyl)oxan-2-yl]oxychromen-4-one]: 10.7 µM.
Compound `COc1cc(-c2oc3cc(O)cc(O)c3c(=O)c2O)ccc1O` yielded an IC50 of 4.34 µM.
The same measure for `COc1cc(-c2cc(=O)c3c(O)c(OC)c(OC)c(OC)c3o2)cc(OC)c1OC` [5-hydroxy-6,7,8-trimethoxy-2-(3,4,5-trimethoxyphenyl)chromen-4-one]: 42.7 µM; for `O=c1c(O)c(-c2ccc(O)cc2)oc2cc(O)cc(O)c12`: 4.03 µM; for `O=c1c(O)c(-c2ccccc2)oc2cc(O)cc(O)c12` [norizalpinin]: 9.8 µM.
